From US11364247B2, “Methods of treatment of partial onset seizures using eslicarbazepine acetate” (BIAL-PORTELA & CA S.A., priority 2005, dated 2022)

Legend:
[1] = Entry-into-man studies in healthy subjects (Almeida I, Almeida II), plasma and urine pharmacokinetics; assay type: in vivo, human
From the text: Studies in humans have shown that, after oral administration, eslicarbazepine acetate appears to be rapidly and extensively metabolized to the active metabolite eslicarbazepine and, in a minor extent, to R-licarbazepine. See Silveira et al., “BIA 2-093 Pharmacokinetics in Healthy Elderly Subjects,” Epilepsia, 45 (suppl. 3), 157 (2004). […] See Almeida I; Almeida, L. & Soares-da-Silva, P., “Safety, Tolerability and Pharmacokinetic Profile of BIA 2-093, a Novel Putative Antiepileptic Agent, during First Administration to Humans,” Drugs R&D, 4, 269-284 (2003) (herein referred to as “Almeida II”).
The inventors performed entry-into-man studies in healthy subjects, the results of which they described in the Almeida I and Almeida II articles, both of which are hereby incorporated by reference. In these studies, the healthy subjects received a single oral dose of eslicarbazepine acetate wherein the dose ranged from 20 mg to 1200 mg (see Almeida II), and multiple daily-doses of eslicarbazepine acetate ranging from 200 mg twice-daily to 1200 mg once-daily (see Almeida I). Further studies (not yet published) by the inventors have investigated higher doses of eslicarbazepine acetate, including, for example, doses ranging up to 2400 mg once-daily.

[2] = Study in epileptic patients: trough plasma concentrations of BIA 2-005; assay type: in vivo, human
From the text: This clinical trial was a double-blind, randomized, placebo-controlled study performed by 20 centers in Croatia, Czech Republic, Germany, Lithuania and Poland. The stated objectives of the study were to assess the efficacy and safety of BIA 2-093 as adjunctive therapy in patients with refractory partial epilepsy. In total, 143 patients aged 18-65 years with at least 4 partial-onset seizures per month in spite of treatment with 1 or 2 antiepileptic drugs (AEDs) (e.g., phenytoin, valproate, primidone, phenobarbital, lamotrigine, gabapentin, topiramate or clonazepam) were randomly assigned to one of three groups: treatment with placebo (n=47), BIA 2-093 once-daily (n=50), or BIA 2-093 twice-daily (n=46), during 12 weeks (plus 1 week of tapering off). For the first 4 weeks, daily dose was 400 mg. Then, daily doses were increased to 800 mg (weeks 5-8), and finally to 1200 mg (weeks 9-12). Tablets with strengths of 200 mg, 400 mg, and 600 mg eslicarbazepine acetate and placebo tablets were manufactured by BIAL (S. Mamede do Coronado, Portugal) in accordance with Good Manufacturing Practice. The assay plasma to determine the concentration of BIA 2-005 was performed with a non-chiral method using isocratic liquid chromatography (LC) with single quadrupole mass spectrometric detection (MS), as described herein. See, e.g., Almeida I and Almeida II.
Plasma/serum samples for the “trough” (pre-dose) levels of BIA 2-005 and concomitant AEDs were collected at all visits but V5 (post-study visit). The objective was to characterize the influence of eslicarbazepine acetate on the pharmacokinetic behavior of the concomitant AEDs (e.g., phenytoin, valproate, primidone, phenobarbital, lamotrigine, gabapentin, topiramate, and clonazepam).

[3] = Trial A: steady-state pharmacokinetics of once-daily and twice-daily regimens in healthy volunteers; assay type: in vivo, human; settings: arithmetic mean; for AUC0-t / AUC0-∞ / Cmax / t1/2 / tmax: after last dose (8 days)
Description: This human pharmacology trial was a study to investigate the steady-state pharmacokinetics of once-daily and twice-daily regimens of eslicarbazepine acetate in healthy subjects. The study was a single center, open-label, randomized, two-way crossover study in 12 healthy volunteers (6 males and 6 females) that consisted of two 8-day treatment periods separated by a washout period of 10-15 days. […] Tablets with a strength of 450 mg of eslicarbazepine acetate, manufactured by BIAL (S. Mamede do Coronado, Portugal) in accordance with Good Manufacturing Practice, were used.
Blood samples for drug plasma assays were taken at the following times: […]
Blood samples were drawn either by direct venipuncture or via an intravenous catheter into lithium heparin tubes and centrifuged at approximately 1500 g for 10 minutes at 4° C. The resulting plasma was separated into 2 equal aliquots of 1 mL and stored at −20° C. until required for analysis.
Plasma concentrations of eslicarbazepine acetate, eslicarbazepine, and R-licarbazepine were determined using isocratic liquid chromatography (LC) with single quadrupole mass spectrometric detection (MS).
The method involved the addition of 500 μL of approximately 0.5 μg/mL of 10,11-dihydrocarbamazepine (internal standard prepared in acetonitrile:water, 3:97, v:v) to 250 μL of plasma (centrifuged at 1800 rpm, prior to analysis) in a polypropylene tube. After vortex mixing for 10 seconds, the mixture was transferred to a Schleicher and Schuell C18/100 mg 96 well solid phase extraction plate. Each well was preconditioned with 800 μL methanol, followed by 800 μL acetonitrile and 800 μL acetonitrile:water (3:97, v:v) prior to application of the total sample volume. Each polypropylene tube was then washed with 500 μL acetonitrile:water (3:97, v:v) and the washings transferred to the respective well. The compounds were eluted into a collection plate with 750 μL acetonitrile and the extract evaporated to dryness under oxygen-free nitrogen, at 40° C. All solid phase extraction manipulations were undertaken using the Tomtec QUADRA 96® Model 320 system and a vacuum was applied at each elution step. The final extract was reconstituted in 100 μL of water:methanol (90:10, v:v) and mixed. The collection plate was then centrifuged at approximately 3000 rpm (at approximately 4° C., for approximately 10 minutes) prior to analysis. An aliquot of the final extract (10 μL) was injected onto the LC-MS system.
The LC-MS system used in the analysis consisted of a Perkin Elmer series 200 micro pump, a Perkin Elmer series 200 autosampler, and a Perkin Elmer/Sciex API 150EX single quadrupole mass spectrometer fitted with a Turbo IonSpray® source. Separation was achieved using a LichroCART 250-4 ChiraDex column (β-cyclodextrin, 5 μm), a LichroCART 4-4 ChiraDex column guard column (β-cyclodextrin, 5 μm), a Jones Chromatography 7971 column heater at 50° C., a mobile phase A (0.2 mM sodium acetate, aq) and a mobile phase B (0.2 mM sodium acetate, MeOH). The MS detector was operated in positive ion mode with mass transitions for BIA 2-093, eslicarbazepine, R-licarbazepine, and the internal standard of 319.16 amu (200 ms), 277.08 amu (200 ms), 277.08 amu (200 ms) and 261.05 amu (200 ms), respectively. The limit of quantification of the assay was 10 ng/mL for eslicarbazepine acetate and 100 ng/mL for eslicarbazepine and R-licarbazepine.
Eslicarbazepine acetate, (S)-(−)-10-acetoxy-10,11-dihydro-5H-dibenz/b,f/azepine-5-carboxamide; eslicarbazepine, (S)-(+)-10,11-dihydro-10-hydroxy-5H dibenz/b,f/azepine-5-carboxamide; and R-licarbazepine, (R)-(−)-10,11-dihydro-10-hydroxy-5H dibenz/b,f/azepine-5-carboxamide, were synthesized in the Laboratory of Chemistry, BIAL, with purities>99.5%. The internal standard, 10,11-dihydrocarbamazepine was supplied by Sigma-Aldrich (St. Louis, Mo.).
The pharmacokinetic parameters were derived from non-compartmental analysis using WinNonlin (Version 4.0, Pharsight Corporation, Mountain View, Calif.). […]

[4] = Metabolic profile in liver microsomes, chiral analysis; assay type: in vitro ADME; settings: liver microsomes from rats, dogs, monkeys and humans, not the R(−) form
[5] = system: refractory partial epilepsy (partial-onset seizures); assay: Study in epileptic patients: efficacy as adjunctive therapy; assay type: in vivo, human; settings: once-daily group compared with the other groups
Description: This clinical trial was a double-blind, randomized, placebo-controlled study performed by 20 centers in Croatia, Czech Republic, Germany, Lithuania and Poland. The stated objectives of the study were to assess the efficacy and safety of BIA 2-093 as adjunctive therapy in patients with refractory partial epilepsy. […] For the first 4 weeks, daily dose was 400 mg. Then, daily doses were increased to 800 mg (weeks 5-8), and finally to 1200 mg (weeks 9-12). Tablets with strengths of 200 mg, 400 mg, and 600 mg eslicarbazepine acetate and placebo tablets were manufactured by […] do Coronado, Portugal) in accordance with Good Manufacturing Practice. […] See, […] and Almeida II. The proportion of patients with a 50% or greater reduction in seizure frequency in the treatment period compared to the baseline period in the intention-to-treat (ITT) population (n=143) was the primary efficacy endpoint. […] The proportion of responders in the once-daily group (54%) was also higher than in the twice-daily (41%) group. […] At this dose level, no significant difference was found between the twice-daily and the placebo groups. Secondary endpoints include the reduction in total seizure frequency, proportion of seizure-free patients, distribution of responders, comparison of once and twice daily regimens, and investigator's and patient's global evaluation.

[6] = system: voltage-gated sodium channel (VGSC); settings: compared with carbamazepine; cited from earlier work
[7] = Trial B: pharmacokinetics following single doses in healthy young male subjects; assay type: in vivo, human
Description: (§1) This human pharmacology trial was a study to determine the pharmacokinetics of eslicarbazepine acetate following single and repeated doses. The study integrated the results of three double-blind, randomized, placebo-controlled trials. To measure the pharmacokinetics of eslicarbazepine acetate following single doses, oral single doses of eslicarbazepine acetate ranging from 20 mg to 2400 mg were administered to healthy young male subjects (6 subjects per dose). The pharmacokinetics of eslicarbazepine acetate following repeated doses were measured by administering repeated oral doses ranging from 400 mg to 2400 mg of eslicarbazepine acetate to healthy young male subjects (6 subjects per dose) over a period of 8 days. Analytical test methods and experimental procedures were similar to those described for Trial A above.

[8] = Trial B: pharmacokinetics following repeated once-daily doses over 8 days in healthy young male subjects; assay type: in vivo, human; settings: for tmax: male, human, plasma, oral, read-out: Median tmax
Description: as §1

[9] = multiple oral dose of 900 mg eslicarbazepine acetate once-daily
[10] = multiple oral dose of 900 mg eslicarbazepine acetate twice-daily
[11] = single oral dose of 1200 mg eslicarbazepine acetate

NC(=O)N1c2ccccc2CC(O)c2ccccc21 (stereo not drawn) [BIA 2-005]
mean renal clearance from plasma ([1]; BIA 2-005, healthy subjects): 20 to 30 mL/min | extent of systemic exposure ([1]; BIA 2-005 after oral eslicarbazepine acetate, healthy subjects): approximately dose-proportional | trough plasma concentration, mean (sd) ([2]; 400 mg/day eslicarbazepine acetate, b.i.d. group): 4.9 (2.3) μg/mL | trough plasma concentration, mean (sd) ([2]; 400 mg/day eslicarbazepine acetate, o.d. group): 4.0 (3.2) μg/mL | trough plasma concentration, mean (sd) ([2]; 800 mg/day eslicarbazepine acetate, b.i.d. group): 13.5 (9.6) μg/mL | trough plasma concentration, mean (sd) ([2]; 800 mg/day eslicarbazepine acetate, o.d. group): 10.7 (7.0) μg/mL | trough plasma concentration, mean (sd) ([2]; 1200 mg/day eslicarbazepine acetate, b.i.d. group): 15.5 (8.8) μg/mL | trough plasma concentration, mean (sd) ([2]; 1200 mg/day eslicarbazepine acetate, o.d. group): 14.6 (8.8) μg/mL

NC(=O)N1c2ccccc2C[C@@H](O)c2ccccc21 [R-licarbazepine, (R)-(−)-10,11-dihydro-10-hydroxy-5H dibenz/b,f/azepine-5-carboxamide]
AUC0-t [3, 9]: 19,600 ng · h/mL | AUC0-∞ [3, 9]: 23.989 µg·h/mL | Cmax [3, 9]: 0.674 µg/mL | t1/2 [3, 9]: 15.0 h | tmax [3, 9]: 9.42 h | AUC0-τ ([3]; multiple oral dose of 900 mg eslicarbazepine acetate once-daily, dosing interval 24 hours): 13.397 µg·h/mL | AUC0-t [3, 10]: 19,661 ng · h/mL | AUC0-∞ [3, 10]: 23.807 µg·h/mL | Cmax [3, 10]: 0.718 µg/mL | t1/2 [3, 10]: 14.8 h | tmax [3, 10]: 6.40 h | AUC0-τ ([3]; multiple oral dose of 900 mg eslicarbazepine acetate twice-daily, dosing interval 12 hours): 7.783 µg·h/mL

CC(=O)O[C@H]1Cc2ccccc2N(C(N)=O)c2ccccc21 [eslicarbazepine acetate, (S)-(−)-10-acetoxy-10,11-dihydro-5H-dibenz/b,f/azepine-5-carboxamide]
metabolite formed [4]: S(+) enantiomer of licarbazepine | assessment of efficacy by the investigator (CGI) and of acceptability by patient [5]: rated best | affinity for the resting state of the sodium channel, lower than that of carbamazepine [6]: about 3 fold

NC(=O)N1c2ccccc2C[C@H](O)c2ccccc21 [eslicarbazepine, (S)-(+)-10,11-dihydro-10-hydroxy-5H dibenz/b,f/azepine-5-carboxamide]
AUC0-t ([7]; male, human, plasma, single oral dose of 2400 mg eslicarbazepine acetate, read-out: Mean AUC0-24 h): 446 µg·h/mL | Mean apparent t1/2 ([7]; single oral dose of 20 mg eslicarbazepine acetate): 9.1 h | Median tmax ([7]; single oral dose of 400 mg eslicarbazepine acetate): 4 h | Median tmax ([7]; single oral dose of 600 mg eslicarbazepine acetate): 4 h | Mean AUC0-24 h [7, 11]: 285,700 ng · h/mL | Median tmax [7, 11]: 4 h | Mean apparent t1/2 ([7]; single oral dose of 2400 mg eslicarbazepine acetate): 11.1 h | Mean Cmax ([8]; last dose of 8-day repeated 800 mg o.d. eslicarbazepine acetate): 18,700 ng/mL | tmax ([8]; last dose of 8-day repeated 1800 mg o.d. eslicarbazepine acetate): 2 h | tmax ([8]; last dose of 8-day repeated 2400 mg o.d. eslicarbazepine acetate): 2 h
